The values below come from patent publication US10544075B2 (OREGON HEALTH & SCIENCE UNIVERSITY, priority 2016, dated 2020).

For series [1] the following is noted: rat heart rate elevation and anti-goiter assays; cited from earlier work.
Series [2] has as its system Hairless (Hr) mRNA. The series can be described thus: Induction of Hairless (Hr) mRNA expression in the brain by qPCR after ip administration. The series is classed as in vivo, C57BL/6J mice. Particulars: for induction of Hr expression: 9.14 μmol/kg ip; for induction of Hr expression / EC50 of Hr mRNA induction in the brain / Hr induction compared to GC-1: 2 hr; for induction of Hr expression / Hr induction compared to GC-1 / potency greater than GC-1 (Hr induction, single dose): brain; for induction of Hr expression / EC50 of Hr mRNA induction in the brain: normalized to GAPDH mRNA; for EC50 of Hr mRNA induction in the brain: ip, ±SEM; for Hr induction compared to GC-1: analogs at 0.914 μmol/kg ip; for potency greater than GC-1 (Hr induction, single dose): from single dose comparison. The procedure:
Euthanasia was performed on three mice per dose at 2 hr and the tissues were harvested. The brain tissues collected for qPCR analysis were processed according to a protocol for RNA extraction using Trizol reagent and the PureLink RNA mini kit, using Qiagen RNase-free DNase kit during the optional DNase treatment step. 1 μg of extracted RNA was used to synthesize cDNA via a reverse transcription (RT) reaction using the Qiagen QuantiTect Reverse Transcription kit. DNA contamination was controlled for by duplicating one sample without the addition of RT enzyme. Expression of the Hairless (Hr) gene was measured by QPCR using the QuantiTect SYBR green PCR kit from Qiagen. The primer sequences for hairless ([…]; Rev: [NT] were previously described by Barca-Mayo19. The template cDNA was diluted 2-fold to minimize the interference of RT reagents in the qPCR reaction. Glyceraldehyde-3-Phosphate Dehydrogenase (GAPDH) was the housekeeping gene used for normalizing between samples. Data analysis for single dose experiment was done using the comparative CT method to look at the relative differences in Hr gene expression.

Series [3] can be described thus: Distribution study in brain and serum after systemic (ip) administration, LC-MS/MS. Format: in vivo, C57BL/6J mice. Particulars: 9.14 μmol/kg ip, 1 hr post-injection. The procedure:
Euthanasia was performed on three mice per dose at 1 hr and the tissues and blood were harvested. Tissues were immediately frozen and blood was kept on ice for a minimum of 30 minutes and then spun down at 7,500×G for 15 minutes. Serum (100 uL) was collected and was stored with tissues at −80° C. until samples were processed.
The serum samples were warmed to RT and 10 uL of 2.99 μM internal standard (D6-GC-1) was added to them. Acetonitrile (500 uL) was added and the sample was vortexed for 20 seconds. The sample was then centrifuged at 10,000×G for 15 minutes at 4° C. Next, 90% of the upper supernatant was transferred to a glass test tube and concentrated using a speedvac for 1.5 hr at 45° C. The dried sample was then dissolved in 400 μL of 50:50 ACN:H2O and vortexed for 20 seconds. The resulting mixture was transferred to an Eppendorf tube and centrifuged at 10,000×G for 15 minutes. The supernatant was filtered with […] centrifugal filters and submitted for LCMS/MS analysis. […] The processing was performed exactly the same except after filtering the sample was split among 6 vials.
The brain samples were warmed to RT and transferred to a homogenizer tube with 5 GoldSpec ⅛ chrome steel balls (Applied Industrial Technologies). The resulting tube was weighed and then 1 mL of H2O was added, followed by 10 μL of 2.99 μM internal standard (D6-Sobetirome). The tube was homogenized with a Bead Bug for 30 seconds and then transferred to a Falcon® tube containing 3 mL of ACN. A 1 ml volume of ACN was used to wash the homogenizer tube. Then the solution was transferred back to the Falcon® tube. The sample was then processed using the same method for the serum processing described above except the sample was concentrated in a glass tube using a speed vac for 4 hr at 45° C.
A distribution study was carried out in C57BL/6J mice to determine the concentrations in brain and serum after systemic (ip) administration. […] Tissue and blood were collected 1 hr post-injection and the concentration of the drugs was determined by LC-MS/MS analysis (FIG. 2).

The target in series [4] is hTRα1 (Homo sapiens (Human), UniProt P10827). Put plainly: TRE-driven dual luciferase transactivation assay, TRα. Format: cell-based. To be noted: transiently transfected HEK293 cells; ±SEM. The protocol:
The cells were trypsinized with 0.25% trypsin, then diluted to 5×10^5 cells/mL with high glucose DMEM. […] 1.5 μg of TR expression vector (full length TRα-CMV or TRβ-CMV), 1.5 μg of a reporter plasmid containing a DR4 thyroid hormone response element (TRE) direct repeat spaced by four nucleotides (AGGTCAcaggAGGTCA) cloned upstream of a minimal thymidine kinase promoter linked to a firefly luciferase coding sequence, and 0.75 μg of a pRL-SV40 constitutive Renilla luciferase reporter plasmid were diluted into 540 μl of OptiMEM. 27 μL of lipofectamine reagent was diluted into 540 μL of OptiMEM. The plasmid and lipofectamine dilutions were combined then incubated at RT for 10 min. The mixture was then diluted into 4.29 mL of OptiMEM. Plates were washed with 100 μL of phosphate buffered saline (PBS) at pH 7.2 without magnesium or calcium chloride per well. Transfection mixtures were added at 50 μL per well, then incubated at 37° C. for 4 hours. […]
(§1) Cells were assayed for luciferase activity using the Promega DualGlo kit. […] A 50 μl volume of Stop & Glo Reagent was added per well, then the plate was read for Renilla luciferase activity. Data normalized to Renilla internal control were analyzed with GraphPad Prism v.4a using the sigmoid dose response model to generate EC50 values±SEM.

The test system of series [5] is hTRβ1. The series can be described thus: TRE-driven dual luciferase transactivation assay, TRβ. The series is classed as cell-based, human. To be noted: transactivation assays in HEK293 cells. The procedure: (§2) The cells were trypsinized with 0.25% trypsin, then diluted to 5×10^5 cells/mL with high glucose DMEM. […] 1.5 μg of TR expression vector (full length TRα-CMV or TRβ-CMV), 1.5 μg of a reporter plasmid containing a DR4 thyroid hormone response element (TRE) direct repeat spaced by four nucleotides (AGGTCAcaggAGGTCA) cloned upstream of a minimal thymidine kinase promoter linked to a firefly luciferase coding sequence, and 0.75 μg of a pRL-SV40 constitutive Renilla luciferase reporter plasmid were diluted into 540 μl of OptiMEM. 27 μL of lipofectamine reagent was diluted into 540 μL of OptiMEM. The plasmid and lipofectamine dilutions were combined then incubated at RT for 10 min. The mixture was then diluted into 4.29 mL of OptiMEM. Plates were washed with 100 μL of phosphate buffered saline (PBS) at pH 7.2 without magnesium or calcium chloride per well. Transfection mixtures were added at 50 μL per well, then incubated at 37° C. for 4 hours. Modified DME/F-12 Ham's medium without phenol red containing 15 mM HEPES and bicarbonate, 5 mM L-glutamine, charcoal-stripped FBS, 50 units/mL penicillin and 50 μg/mL streptomycin was added at 50 μL per well, then the plates were incubated at 37° C. for 20 hours. Drug stocks were made at 10 mM in DMSO, then serially diluted to 1× concentrations in DME/F-12 Ham's. Plates were washed with 100 μL of PBS (pH 7.2) per well. 100 μL of each drug stock was added to the wells in triplicate, and then the plates were incubated at 37° C. for 24 hours.
as §1

Series [6] concerns the target hTRβ1 (Homo sapiens (Human), UniProt P10828). The description is as above. The series is classed as cell-based. To be noted: transiently transfected HEK293 cells; ±SEM. The protocol:
as §2, §1

Series [7] is described as follows: Single time-point drug distribution of parent drugs from amides in brain and serum. To be noted: equimolar systemic dose of 3.05 μmol/kg, 1 hour, brain. The series is classed as in vivo, C57Bl/6 mice. The protocol:
Wild type male C57Bl/6 mice, aged 8-10 weeks, were housed in a climate-controlled room with a 12 hour light-dark cycle with ad libitum access to food and water. To compare the single time-point drug distribution of JD-20 with JD-20 generated from the amide MA-JD20, and JD-21 with JD-21 generated from the amide MA-JD-21, the concentrations of the parent drugs were analyzed in brain and serum of mice by administering a dose of 3.05 μmol/kg (three mice per dose) with JD-20, JD-21, MA-JD20 and MA-JD21 both intraperitoneally and orally. The compounds were dissolved in a mixture of 50:50 DMSO and 0.9% sodium chloride bacteriostatic solution. Oral gavage was performed with the use of plastic feeding tubes (20 ga×38 mm, Instech Laboratories Inc., PA, USA) connected to […] insulin syringes (Covidien LLC MA, USA). In both experiments, the mice were euthanized after 1 hour following drug administration.
The tissues were processed as follows: The brains were collected in previously weighed homogenizer tubes with 3 Gold Spec ⅛ chrome steel balls (Applied Industrial Technologies) and immediately frozen at −80° C. The blood samples were kept on ice for 30 mins and then spun down at 5400×G at 4° C. for 15 min. […]
The serum samples were warmed to room temperature. […] The serum samples thus prepared were submitted for LC-MS/MS analysis to quantify the amount of free JD-20 or JD-21. […]

Series [8] deals with Human FAAH (Homo sapiens (Human), UniProt O00519). Put plainly: FAAH activity in cell homogenate. Format: biochemical. The procedure: COS-7 cells (ATCC CRL-1651) were cultured in Dulbecco's Modified Eagle's Medium supplemented with 10% FBS, penicillin ([…]), and streptomycin ([…]). Cells (800,000/well) were seeded into 6-well plates (Falcon 353046) and left to adhere overnight. Cells were transfected with pcDNA4-FAAH-FLAG with Lipofectamine 2000 (Invitrogen) according to the manufacturer's protocol. Mock transfection controls were done with transfection reagent and no DNA. Cells were washed 4-days post transfection with cold PBS and scraped into TE buffer (125 mM Tris, 1 mM EDTA, pH 9) and sonicated (10 sec, 60 Sonic Dismembrator, Fisher). Cell homogenates were stored at −80° C. and protein concentrations were determined by BCA (Pierce). Cell homogenates were diluted into TE buffer containing 0.1% fatty-acid free BSA (Alfa Aesar). Substrates were added as 50× stocks in DMSO into 50 μL aliquots of homogenate to a final concentration of 100 μM. Reactions were performed with homogenate protein at 31.25 μg/mL for 15 min at 37° C. Reactions were quenched with 100 μL acetonitrile and vortexed for 20 s. Samples were clarified by centrifuge (10,000 rpm, 15 min, 4° C.). The supernatant is diluted 50-fold into 2:1 MeCN:H2O containing 300 nM d11-arachindonic acid and 30 nM d6-sobetirome. Samples were centrifuged again (13,200 rpm, 15 min, 4° C.). Products were quantified by LC/MS-MS with standard curves generated from mock samples. Observed rates are expressed as nmol product per mg protein homogenate per min.
Sequence of Human FAAH (O00519 whole entry): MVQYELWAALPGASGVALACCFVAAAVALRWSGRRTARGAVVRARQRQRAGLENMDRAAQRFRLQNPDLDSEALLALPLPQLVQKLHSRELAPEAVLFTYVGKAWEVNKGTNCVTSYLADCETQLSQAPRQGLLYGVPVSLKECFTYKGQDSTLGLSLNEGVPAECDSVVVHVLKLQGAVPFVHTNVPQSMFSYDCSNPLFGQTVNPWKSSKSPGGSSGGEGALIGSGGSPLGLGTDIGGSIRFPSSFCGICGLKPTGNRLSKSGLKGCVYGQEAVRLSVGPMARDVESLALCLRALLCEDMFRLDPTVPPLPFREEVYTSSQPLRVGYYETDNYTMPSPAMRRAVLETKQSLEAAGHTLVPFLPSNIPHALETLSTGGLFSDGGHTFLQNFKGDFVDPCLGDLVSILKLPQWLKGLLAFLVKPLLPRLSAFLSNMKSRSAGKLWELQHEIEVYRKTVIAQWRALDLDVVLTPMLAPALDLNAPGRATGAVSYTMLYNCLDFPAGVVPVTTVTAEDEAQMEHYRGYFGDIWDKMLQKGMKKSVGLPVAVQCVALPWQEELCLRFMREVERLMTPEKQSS
FAAH was overexpressed in COS-7 cells as described above and cell homogenate was used to measure observed rates of substrate cleavage compared with the classic endogenous FAAH substrate anandamide (AEA). Substrate were all tested at 100 μM. Compared to AEA, the thyromimetic amides MA-GC 1 (9-fold), MA-JD20 (31-fold), and MA-JD21 (20-fold) show decreased rates. […] Observed rates are expressed as nmol product per mg homogenate protein per min.

Sequence of hTRα1 (P10827 other isoform, or with tags, fused parts or gaps): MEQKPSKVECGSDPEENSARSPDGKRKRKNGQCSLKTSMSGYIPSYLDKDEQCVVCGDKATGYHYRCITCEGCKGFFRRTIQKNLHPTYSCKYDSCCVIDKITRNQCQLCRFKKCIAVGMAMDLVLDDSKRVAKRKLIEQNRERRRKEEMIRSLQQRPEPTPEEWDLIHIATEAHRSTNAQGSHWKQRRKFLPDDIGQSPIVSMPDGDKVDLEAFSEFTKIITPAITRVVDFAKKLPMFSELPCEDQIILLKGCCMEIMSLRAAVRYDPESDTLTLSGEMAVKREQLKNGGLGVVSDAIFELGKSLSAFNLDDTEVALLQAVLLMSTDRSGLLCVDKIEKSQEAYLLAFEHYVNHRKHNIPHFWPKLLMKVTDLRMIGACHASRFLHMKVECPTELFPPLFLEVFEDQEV
Sequence of hTRβ1 (Homo sapiens (Human), UniProt P10828) (P10828 whole entry, looked up): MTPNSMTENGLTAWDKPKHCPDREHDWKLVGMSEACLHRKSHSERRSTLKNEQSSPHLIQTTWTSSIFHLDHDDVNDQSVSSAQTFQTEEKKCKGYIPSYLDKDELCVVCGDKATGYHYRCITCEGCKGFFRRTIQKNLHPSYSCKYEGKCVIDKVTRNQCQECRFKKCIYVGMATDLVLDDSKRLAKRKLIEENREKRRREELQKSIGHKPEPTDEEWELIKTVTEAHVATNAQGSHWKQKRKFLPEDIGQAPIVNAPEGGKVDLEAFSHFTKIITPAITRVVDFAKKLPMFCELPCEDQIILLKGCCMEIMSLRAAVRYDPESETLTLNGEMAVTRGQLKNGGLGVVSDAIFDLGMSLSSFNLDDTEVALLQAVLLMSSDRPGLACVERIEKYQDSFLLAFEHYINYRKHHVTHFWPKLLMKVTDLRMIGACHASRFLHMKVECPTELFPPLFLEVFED

Consider `Cc1cc(CC(N)C(=O)O)cc(C)c1Oc1ccc(O)c(C(C)C)c1` (racemic) [DIMIT, 3′-isopropyl-3,5-dimethyl-DL-thyronine], for which the activity result in series [1] is on record as “little measurable activity”.
As for `Cc1cc(OCC(=O)O)cc(C)c1Cc1ccc(O)c(C(C)C)c1` [GC-1, sobetirome, reference compound], in series [2], the “induction of Hr expression” value turned out to be 1.6 fold and the “EC50 of Hr mRNA induction in the brain” value turned out to be 8.20 ± 12.65 µmol/kg.
In general, EC50 refers to the concentration giving half of the maximal effect. A high value points to lower potency in that assay. In the case of `CC(C)c1cc(Cc2c(Cl)cc(OCC(=O)O)cc2Cl)ccc1O` [JD-21, 2-(3,5-dichloro-4-((3-isopropyl-4-hydroxyphenyl)methyl)-phenoxy)acetic acid], in series [3], the “brain:serum ratio compared to GC-1” value is on record as “higher brain:serum ratio than GC-1”, the “brain uptake compared to GC-1” value was “roughly comparable brain uptake compared to GC-1” and the “serum levels compared to GC-1” value was “significantly lower than GC-1”. In addition, in series [2], the “induction of Hr expression” value was found to be 2.4 fold; the “Hr induction compared to GC-1” value is on record as “comparable Hr induction to GC-1”; the “potency greater than GC-1 (Hr induction, single dose)” value was “roughly 10 fold”; the “EC50 of Hr mRNA induction in the brain” value was 1.21 ± 1.75 µmol/kg. For the same molecule, it took 7.82 ± 3.61 nM to reach a half-maximal effect in series [4] (EC50). For the same molecule, the “TRβ/TRα subtype selectivity from EC50 values” in series [5] came to 6.31. The midpoint of the response in series [6], the EC50, lay at 1.24 ± 1.3 nM.
Consider `CC(C)c1cc(Cc2c(Br)cc(OCC(=O)O)cc2Br)ccc1O` [JD-20, 2-(3,5-dibromo-4-((3-isopropyl-4-hydroxyphenyl)methyl)-phenoxy)acetic acid], for which, in series [3], the “brain:serum ratio compared to GC-1” value is on record as “comparable to GC-1”, the “brain uptake compared to GC-1” value was “somewhat lower” and the “serum levels compared to GC-1” value was “significantly lower than GC-1”. Moreover, in series [2], the “Hr induction compared to GC-1” value was “comparable Hr induction to GC-1”; the “potency greater than GC-1 (Hr induction, single dose)” value is “roughly 10 fold”; the “EC50 of Hr mRNA induction in the brain” value was 1.49 ± 1.08 µmol/kg. Moreover, in series [4], a half-maximal effect (EC50) was put at 7.96 ± 6.95 nM. For the same molecule, the “TRβ/TRα subtype selectivity from EC50 values” in series [5] was determined as 9.04. In addition, the EC50 in series [6] came out at 0.88 ± 1.12 nM.
Turning to `CC(C)c1cc(Oc2c(Br)cc(C[C@H](N)C(=O)O)cc2Br)ccc1O` [DIBIT, 3′-isopropyl-3,5-dibromo-L-thyronine], in series [1], the “potency relative to L-T4” value was 2-7 fold.
On to `CNC(=O)COc1cc(Cl)c(Cc2ccc(O)c(C(C)C)c2)c(Cl)c1` [MA-JD21, 2-(3,5-dichloro-4-(4-hydroxy-3-isopropylbenzl)phenoxy)-N-methylacetamide], for which the “parent drug delivered to the CNS compared to unmodified JD-20 or JD-21” value in series [7] is “delivers more of the parent drugs to the CNS”. Further, the FAAH substrate result in series [8] (100 μM, COS-7 cell homogenate) is given as “substrates for fatty-acid amide hydrolase (FAAH)”. In addition, the “decreased observed rate of substrate cleavage compared to AEA” value in series [8] (substrate 100 μM, FAAH overexpressed in COS-7 cell homogenate) turned out to be 20 fold.
